Measured values published in PubChem BioAssay (NCI).
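These data come from cells grown in 96-well plates and exposed to compound for 48 hours at five concentrations. Abbreviation: GI50, concentration required for 50% inhibition of growth. The concentration for full growth arrest is given as TGI.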

Tests used:
Assay in all cases: growth of human tumour cells (NCI), 48 h
[1] = tested on: HCC-2998 colon
[2] = tested on: HOP-62 NSCLC
[3] = tested on: SNB-75 CNS
[4] = tested on: T-47D breast
[5] = tested on: SK-OV-3 ovarian
[6] = tested on: PC-3 prostate
[7] = tested on: SF-295 CNS
[8] = tested on: SR leukemia
[9] = tested on: SF-268 CNS
[10] = tested on: HT29 colon
[11] = tested on: M14 melanoma
[12] = tested on: UACC-257 melanoma
[13] = tested on: SNB-19 CNS
[14] = tested on: MDA-MB-435
[15] = tested on: UACC-62 melanoma
[16] = tested on: 786-0 renal
[17] = tested on: A549 NSCLC
[18] = tested on: RXF 393 renal
[19] = tested on: MALME-3M melanoma
[20] = tested on: SN12C renal
[21] = tested on: HL-60(TB) leukemia
[22] = tested on: SK-MEL-2 melanoma
[23] = tested on: NCI-H460 lung
[24] = tested on: HOP-92 NSCLC
[25] = tested on: K-562 leukemia
[26] = tested on: SW-620 colon
[27] = tested on: IGROV1 ovarian
[28] = tested on: DU-145 prostate
[29] = tested on: COLO 205 colon
[30] = tested on: NCI/ADR-RES ovarian
[31] = tested on: MDA-MB-231 breast
[32] = tested on: OVCAR-3 ovarian
[33] = tested on: KM12 colon
[34] = tested on: ACHN renal
[35] = tested on: A498 renal
[36] = tested on: SF-539 CNS
[37] = tested on: BT-549 breast
[38] = tested on: MOLT-4 leukemia
[39] = tested on: CCRF-CEM leukemia
[40] = tested on: OVCAR-4 ovarian
[41] = tested on: OVCAR-8 ovarian
[42] = tested on: CAKI-1 renal
[43] = tested on: OVCAR-5 ovarian
[44] = tested on: SK-MEL-5 melanoma
[45] = tested on: HS 578T breast
[46] = tested on: RPMI-8226 leukemia
[47] = tested on: UO-31 renal
[48] = tested on: TK-10 renal
[49] = tested on: MCF7 breast
[50] = tested on: NCI-H226 lung
[51] = tested on: NCI-H23 lung
[52] = tested on: HCT-116 colon
[53] = tested on: SK-MEL-28 melanoma
[54] = tested on: U251 CNS

Compound `C[C@]12CC[C@@H]3c4ccc(O)cc4CC[C@H]3[C@@H]1CC[C@@H]2NS(=O)(=O)c1ccc(Cl)cc1` has a GI50 [1] of 7.49 µM, a TGI [1] of 23.8 µM and a GI50 [2] of 10.2 µM. The TGI [2] was 24.4 µM, the GI50 [3] was 2.07 µM and the TGI [3] was 9.17 µM. For the same compound, the GI50 [4] was 3.66 µM, the TGI [4] was 15.3 µM and the GI50 [5] was 8.79 µM. It also gave a TGI [5] of 22.5 µM, a GI50 [6] of 2.86 µM and a TGI [6] of 13.5 µM. It also gave a GI50 [7] of 1.39 µM, a TGI [7] of 2.72 µM and a GI50 [8] of 4.47 µM. The TGI [8] was 50.8 µM, the GI50 [9] was 5.69 µM and the TGI [9] was 19.9 µM. The GI50 [10] was 2.92 µM, the TGI [10] was 8.19 µM and the GI50 [11] was 9.13 µM. For the same compound, the TGI [11] was 27.1 µM, the GI50 [12] was 8.5 µM and the TGI [12] was 23.5 µM. The GI50 [13] was 11 µM, the TGI [13] was 24 µM and the GI50 [14] was 1.84 µM. The TGI [14] was 3.93 µM, the GI50 [15] was 4.46 µM and the TGI [15] was 17.5 µM. The GI50 [16] was 5.19 µM, the TGI [16] was 19.7 µM and the GI50 [17] was 3.98 µM. The TGI [17] was 15.3 µM, the GI50 [18] was 3.02 µM and the TGI [18] was 8.89 µM. For the same compound, the GI50 [19] was 3.25 µM, the TGI [19] was 10.7 µM and the GI50 [20] was 3.02 µM. The TGI [20] was 12.3 µM, the GI50 [21] was 5.14 µM and the TGI [21] was 26.6 µM. The GI50 [22] was 5.31 µM, the TGI [22] was 17.7 µM and the GI50 [23] was 2.6 µM. The TGI [23] was 6.66 µM, the GI50 [24] was 2.68 µM and the TGI [24] was 10.7 µM. The GI50 [25] was 3.93 µM, the TGI [25] was 31.7 µM and the GI50 [26] was 3.95 µM. It also gave a TGI [26] of 15.9 µM, a GI50 [27] of 5.74 µM and a TGI [27] of 18.4 µM. It also gave a GI50 [28] of 7.53 µM, a TGI [28] of 21.6 µM and a GI50 [29] of 2.17 µM. The TGI [29] was 4.09 µM, the GI50 [30] was 4 µM and the TGI [30] was 16.8 µM. For the same compound, the GI50 [31] was 3.6 µM, the TGI [31] was 14.2 µM and the GI50 [32] was 3.75 µM. It also gave a TGI [32] of 12.8 µM, a GI50 [33] of 2.86 µM and a TGI [33] of 9.51 µM. The GI50 [34] was 3.5 µM, the TGI [34] was 12.9 µM and the GI50 [35] was 2.52 µM. It also gave a TGI [35] of 9.36 µM, a GI50 [36] of 5.36 µM and a TGI [36] of 19.1 µM. It also gave a GI50 [37] of 5.65 µM, a TGI [37] of 22.3 µM and a GI50 [38] of 3.46 µM. The TGI [38] was 24.4 µM, the GI50 [39] was 3.5 µM and the TGI [39] was 37.6 µM. It also gave a GI50 [40] of 1.99 µM, a TGI [40] of 8.65 µM and a GI50 [41] of 4.86 µM. For the same compound, the TGI [41] was 20.6 µM, the GI50 [42] was 3.3 µM and the TGI [42] was 10.4 µM. For the same compound, the GI50 [43] was 6.02 µM, the TGI [43] was 20.5 µM and the GI50 [44] was 2.4 µM. For the same compound, the TGI [44] was 6.71 µM, the GI50 [45] was 2.58 µM and the TGI [45] was 14.5 µM. The GI50 [46] was 3.92 µM, the TGI [46] was 23.5 µM and the GI50 [47] was 2.59 µM. It also gave a TGI [47] of 11.9 µM, a GI50 [48] of 5.46 µM and a TGI [48] of 17.6 µM. The GI50 [49] was 1.91 µM, the TGI [49] was 4.86 µM and the GI50 [50] was 6.43 µM. The TGI [50] was 21.4 µM, the GI50 [51] was 5.67 µM and the TGI [51] was 23.1 µM. It also gave a GI50 [52] of 4.03 µM, a TGI [52] of 21.7 µM and a GI50 [53] of 7.45 µM. For the same compound, the TGI [53] was 22.3 µM, the GI50 [54] was 5.49 µM and the TGI [54] was 18.5 µM.
